The source of these data is patent publication US9107959B2, “Method for site-specific polyvalent display on polymers” (priority 2006, dated 2015).

The series in a line: Cyclic voltammetry (electrochemical analyses). Format: physicochemical. As to conditions: 0.5 mM in water, NaCl 50 mM. The procedure: Ethynylferrocene (1.05 mg, 5.0 μmol) was dissolved in 10 mL HPLC grade water. NaCl (29.22 mg, 0.5 mmol) was added to the solution as a supporting electrolyte. Similarly, solutions of 10 mL water, 6.3 mg (5.0 μmol) peptoid 13 or 4.8 mg (5.0 μmol) peptoid 14 and 29.22 mg (0.5 mmol) NaCl were prepared. The following techniques were performed identically on 0.5 mM ethynylferrocene (50 mM NaCl), 0.5 mM 13 (50 mM NaCl) or 0.5 mM 14 (50 mM NaCl). Approximately 4 mL of solution was transferred to an electrochemical cell and subjected to cyclic voltammetry (CV) experiments. Cyclic voltammetry was conducted using a CH Instruments 600A Electrochemical Analyzer and CV curves were generated using software developed by CH Instruments. Current (μA) versus Potential (V) was measured across a freshly polished CHI104 3 mm diameter glassy carbon disk working electrode (CH Instruments) with a Ag/AgCl (3 M KCl) reference electrode (CH Instruments) and a Pt wire […] (scan rate=9.0 mV s^−1).
To test the effect of triazole conjugation on ferrocene redox properties, compound 13 was purified to >96% as determined by RP-HPLC and the electrochemical behavior of ethynylferrocene and 13 were compared using cyclic voltammetry (CV). Additionally, the influence of the estradiol group on the redox potential of the neighboring ferrocene moiety was evaluated by comparing the electrochemical characteristics of 13 with its azido-functionalized precursor 14. CV experiments were carried out at room temperature using previously described methods (Casas-Solvas et al., Org. Lett. 2004, 6, 3687). CV was performed on solutions of ethynylferrocene (0.5 mM), 13 (0.5 mM) or 14 (0.5 mM) prepared in water with NaCl (50 mM) as a supporting electrolyte, using a Ag/AgCl (KCl 3 M) reference electrode, a freshly polished glassy carbon working electrode, and a Pt wire counter electrode with a scan rate of 9.0 mV s^−1. The values of the formal redox potential)(E^o) and the half-peak potential (Ep/2) of ethynylferrocene, 13 and 14 are shown in Table 1. […]

[1] abbreviates: glassy carbon working electrode, Ag/AgCl reference, scan rate 9.0 mV s^-1.

In the case of Ethynylferrocene, the “Redox behaviour in cyclic voltammograms (ferrocene/ferrocenium)” value (FIG. 5) is “reversible redox couples”. Under setting [1], the “Ep/2 (half-peak potential)” value was found to be 0.525 V and the “E° (formal redox potential)” value turned out to be 0.512 V.
